Experimental data reported in US11192903B2, “Zirconium-89 oxine complex as a cell labeling agent for positron emission tomography” (The United States of America, as represented by the …, priority 2014, dated 2021).
Like-named read-outs stand apart in the source and are kept apart here.

Columns and labels:
[1] = test system: CTLs; conditions: TCR stimulation
Experimental: (§1) CTLs, both labeled and unlabeled, were activated by plate coated anti-CD3 antibody (10 μg/ml) and anti-CD28 antibody (5 μg/ml) for 1.5 day and expression of CD3, CD8, CD44, CD25, CD69, INF-γ and IL-2 which was evaluated by flow cytometry. Bone marrow-derived DCs on day 6 of culture with or without ^89Zr-oxine complex labeling were stimulated with LPS (1 ng/ml) overnight and surface expression of CD11c, CD80, CD86, CD40, MHC class I and MHC class II was examined. In another experiment, ^89Zr-labeled DCs were stimulated with LPS in the presence of OVA overnight, transferred to Rag1KO mice expressing Ly5.2 (2 million cells) pre-injected with CMFDA labeled OT-1 CD8 T cells expressing Ly5.1. Peripheral blood and splenocytes were collected 3.5 days later and dilution of CMFDA in OT-1 T cells was analyzed using flow cytometry gated on Ly5.1+ CD8 T cells.
CTLs were TCR stimulated after the ^89Zr-oxine complex labeling.

[2] = test system: BM cells
Experimental: The surface expressions of CD117, sca-1 and lineage markers (CD3, NK1.1, Ly6G, CD2, CD5 and B220) on BM cells were examined before and after ^89Zr-oxine labeling (3.15 kBq/2×10^6) and analyzed by flow cytometry using a FACS Calibur flow cytometer (Becton Dickinson, San Jose, Calif.) and analyzed using FlowJo software (Tree Star, Inc., Ashland, Oreg.). BM cell differentiation capability was examined by culturing the ^89Zr-labeled and non-labeled cells with GM-CSF (20 ng/ml) and IL-15 (25 nM) for differentiation to DCs and NK/NK-T cells (n=3). On day 10, the cells were harvested, stained with anti-CD11c, CD86, and NK1.1 antibodies, and analyzed on flow cytometry. For the GM-CSF culture, cell associated-^89Zr activity and cell number were also examined.

[3] = test system: DCs
Experimental: (§2) After ^89Zr-oxine complex labeling, DCs were stimulated with LPS (5 ng/ml) overnight. CD8 T cells labeled with ^89Zr-oxine complex were stimulated with plate coated anti-CD3 antibody (10 μg/ml) and anti-CD28 antibody (5 μg/ml) for 3 days, then transferred to an antibody-free culture supplemented with human IL-15 (3 nM).
as §1

[4] = test system: CTLs; conditions: TCR stimulation then withdrawal, vs non-labeled
Experimental: as §2

[5] = test system: BM cells; remark: listed apart in the source
Experimental: BM cells were incubated with 11.0-55.5 kBq/10^6 cells of ^89Zr-oxine complex in PBS at 25:1 volume ratios for 20 minutes, washed twice in RPMI media and transferred to a new tube. […] To determine cell viability and retention of ^89Zr after the labeling, BM cells were labeled with 2 different radioactivity doses, 28.12 kBq/10^6 and 8.14 kBq/10^6 cells, and cultured with SCF, FLT3L and TPO (100 ng/ml each). The number of live cells was counted using 0.4% trypan blue dye (Life Technologies) at 0 h, 2 d, 4 d, and 7 d (n=3). At each time point, the cell suspension was spun to separate the supernatant and the cell pellet, and the radioactivity of both fractions was measured by a γ-counter (WIZARD^2 automatic gamma-counter, Perkin Elmer, Waltham, Mass.).

[6] = molecular target: CXCR4 (Mus musculus, UniProt P70658); conditions: at 2 h; plerixafor 5 mg/kg i.v. 15 min before cell transfer
Experimental: A CXCR4 inhibitor, plerixafor (Adooq Bioscience, Irvine, Calif.), was used to interrogate the role of CXCR4 in BM cell migration (n=4). Mice received an i.v. injection of plerixafor (5 mg/kg) 15 min before and 1 day after the ^89Zr-oxine labeled BM cell transfer (331 kBq/2×10^7 cells). Another group of mice received concurrent i.v. injections of G-CSF (2.5 μg, n=4). Deferoxamine was injected intramuscularly 15 min before and 1, 2, 3 and 4 hr after the cell injection. Serial microPET/CT images were acquired.

Chain of CXCR4 (P70658 whole entry): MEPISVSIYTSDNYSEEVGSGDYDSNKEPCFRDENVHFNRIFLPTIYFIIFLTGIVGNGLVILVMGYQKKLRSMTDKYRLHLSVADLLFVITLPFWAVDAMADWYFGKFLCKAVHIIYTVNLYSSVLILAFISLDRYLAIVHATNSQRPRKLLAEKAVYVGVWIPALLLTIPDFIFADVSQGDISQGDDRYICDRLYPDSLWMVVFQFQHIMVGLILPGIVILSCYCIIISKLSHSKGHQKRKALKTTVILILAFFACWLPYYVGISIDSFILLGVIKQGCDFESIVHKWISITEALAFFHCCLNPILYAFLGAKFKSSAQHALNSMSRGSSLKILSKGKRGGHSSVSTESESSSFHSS

Row | migration of labeled cells to the BM [6] | SMILES | production of IFNγ and IL-2 [1] | upregulation of CD69, CD25 and CD44 markers ([1]; labeled vs non labeled CTLs) | capacity to proliferate and differentiate ([2]; 10 day culture with GM-CSF or IL-15) | expression of CD117, sca-1 and lineage markers ([2]; BM cells, 3.15 kBq/2×10^6) | antigen presentation to OT-1 T cells in vivo ([3]; labeled DCs stimulated with LPS and OVA, injected into mice, flow cytometry 4 days after transfer) | expression of B7 molecules, CD80 and CD86, on DCs ([3]; prior to LPS activation) | proliferation and contraction of labeled CTLs [4] | live cell number ([5]; BM cells labeled at 8.14 kBq/10^6 cells) | live cell number ([5]; BM cells labeled at 28.12 kBq/10^6 cells) | suppression of the proliferation ([5]; BM cells, lower labeling dose (8.14 kBq/10^6 cells), vs non-labeled control)
1 | – | c1cnc2c([O][89Zr]([O]c3cccc4cccnc34)([O]c3cccc4cccnc34)[O]c3cccc4cccnc34)cccc2c1 [^89Zr-oxine complex] | did not negatively affect | at the similar levels | retained the capacity to proliferate and differentiate normally into mature cells | at similar levels to non-labeled controls | capable of presenting the antigen and inducing T cell activation and proliferation as well as non-labeled DCs | slightly increased expression | similarly to the non-labeled controls | slight proliferation after day 4 | slightly decreased in number | approximately 50%
2 | significantly inhibited | c1cc(CN2CCCNCCNCCCNCC2)ccc1CN1CCCNCCNCCCNCC1 [plerixafor] | – | – | – | – | – | – | – | – | – | –
